SMILES strings stand for the structures.

The subject of data set [1] is CA46 (human B cell lymphoma). Put plainly: Cell cytotoxicity CellTiter-Glo, CA46. The class given is cell-based. As to the method: (§1) Cells were seeded in 96-well microplates and treated with compounds or cisplatin (as a positive control) at 9 increasing concentrations in technical triplicate. […] On day 1, 90 μL of various cell suspensions with the number of cells ranging from 5000-8000 cells/well were seeded into wells of a 96-well plate (Corning). The number of cells to be seeded was previously determined. • 2. All 96-wells plates with cells were placed in an incubator overnight at 37° C. with 5% CO2. • 3. On day 2, cells were observed under a microscope ensuring the cells treated with vehicle control were in good condition. • 4. A dilution series of the test compounds and cisplatin were prepared at 10× the final concentrations required. 10 μL/well of 10× compound solution was added to the corresponding plates. The final volume was 100 μL/well for all the plates. Final DMSO concentration was 0.1%. • 5. On day 5 (after 72 hours of incubation), 50 μL of CTG reagent was added to each well. • 6. Contents were mixed for 5 minutes on an orbital shaker to facilitate cell lysis. • 7. The plate was allowed to incubate at room temperature for 10 minutes to stabilize luminescent signals. […]

The subject of data set [2] is RKO (human colon carcinoma). Put plainly: Cell cytotoxicity CellTiter-Glo, RKO. The class given is cell-based. Here is the method:
as §1

Data set [3] concerns NCI-H1703 (human lung squamous cell carcinoma). Put plainly: Cell cytotoxicity CellTiter-Glo, NCI-H1703. In kind it is cell-based. As to the method:
as §1
For orientation: ATP-based viability assays read luminescence as a measure of living cells.

Data set [4] has as its system DU4475 (human breast carcinoma). Put plainly: Cell cytotoxicity CellTiter-Glo, DU4475. The class given is cell-based. The note with it: DU-4475. As to the method: as §1
The next data set deals with mouse hepatocytes. Nature of the data set: Hepatocyte metabolic stability, mouse. In kind it is in vitro ADME. As to the method: Biological Example 6: Rat hepatocyte half life Certain Example compounds and Comparator Compound 1 were tested for metabolic stability in a metabolic assay using mouse- and rat-derived hepatocytes. Compounds having good metabolic stability in the assay are expected to be especially useful as agents for preventing and/or treating cancer, by having a long half-life in human patients.
Frozen pooled rat and mouse hepatocytes obtained from LifeTechnologies were thawed and purified according to the manufacturer's instructions. The test compound (4 mM) in DMSO was diluted with acetonitrile to provide a 100 μM sub-stock then further diluted with pH 7.4 Krebs-Henseleit buffer (supplemented with CaCl2, NaHCO3, HEPES, fructose and glycine) to provide a 2 μM working solution. 25 μL of working solution was incubated at 37° C., treated with 25 μL of rat or mouse hepatocyte suspension (containing 1×10^6 cells/mL) and incubated at 37° C. with 5% CO2 level at 95% relative humidity. Wells were incubated for an appropriate time (0, 15, 30, 45, 60 and 75 min) then quenched with 250 μL of acetonitrile containing reference standards diltiazem, 7-ethoxycoumarin and propranolol). The plates were shaken, sonicated for 5 min then cooled to 4° C. until all sampling was complete. All plates were centrifuged at 4000 rpm for 20 min to pellet the debris. 110 μL supernatant was diluted 110 μL water and quantitated using LC-MS/MS.
A linear regression curve was fitted to a plot of natural logarithm (In) of AUC against time. The T-half (min)=0.693/slope

For a further data set, the system named is DOHH-2 tumor cells. Nature of the data set: Subcutaneous xenograft DOHH-2 lymphoma model. In kind it is in vivo, CB17/SCID mice. The note with it: intraperitoneal dosing (Example 5: 7 or 20 mg/kg; Example 12: 0.7 or 2 mg/kg), QD cycles. Here is the method:
The in vivo efficacy of certain Example compounds was assessed in a subcutaneous xenograft DOHH-2 Lymphoma Model using 10 female 6-8 week old CB17/SCID Mice. Each mouse was inoculated subcutaneously at the right front region with DOHH-2 tumor cells (5×10^6) in 0.1 ml of PBS mixed with matrigel (1:1 PBS:matrigel) for tumor development. The test compound administration started once the mean tumor size reached approximately 100-150 mm^3.
Compounds were administered either IP (vehicle 10 mM sodium phosphate+0.2% Tween-80 (pH7.4) or orally (vehicle 15 Na2HPO4 buffer (10 mM) (pH 4.5)+0.2% tween 80). Tumor volumes were measured in two dimensions using a caliper, and the volume expressed in mm^3 using the formula: V=(L×W×W)/2, where V is tumor volume, L is tumor length (the longest tumor dimension) and W is tumor width (the longest tumor dimension perpendicular to L).
Mice were dosed with Example 21 orally (12.5 or 25 mg/kg) once a day for 9 consecutive days (FIG. 3). Example 5 was dosed intraperitoneally (7 or 20 mg/kg) in a cycle consisting of administration QD for three days followed by a three day no-dosing period followed by QD dosing for a further three days (FIG. 4). Example 12 was dosed intraperitoneally (0.7 or 2 mg/kg) in a cycle consisting of administration QD for three days followed by a three day no-dosing period followed by QD dosing for a further three days (FIG. 5). In a separate study Example 12 was dosed at […] in a cycle consisting of administration QD for two days followed by either four or six day no-dosing period, and this cycle was repeated three times (FIG. 6).

For data set [5], the system named is BT474 breast cancer cells. Put plainly: Orthotopic BT474 breast cancer xenograft model. The conditions noted are these: 2.0 mg/kg IV, 2 days dosing then 5 day holiday (Group 6), stopped at day 13. The class given is in vivo, NOD/SCID mice.
Protocol: NOD/SCID mice were implanted with estrogen pellets (17β-estradiol, 60 day release, 0.36 mg) subcutaneously in the right flank one day before the tumour inoculation. On day −8 each mouse was then injected in the right mammary fat pad with 1×10^7 viable BT474 breast cancer cells resuspended in 0.2 mL of Phosphate Buffered Saline mixed with matrigel (1:1). Mice were assigned to treatment groups when tumour volumes averaged 149.78 mm^3 on study day 0. […] The study was terminated on Study Day 35.
Each group was comprised of 10 mice. Tumour volumes in mice were measured three times per week and tumour volume was calculated using the formula 0.5 (L×W^2). […] Statistical analyses were carried out on tumour readings for Groups 1, 2, 3, 4 and 5 up to Study Day 23 (after this point >50% of the animals within one of the study groups were lost; Group 2) using two-way ANOVA, or a Mixed-Effects model was fitted when values were missing from groups (PRISM GraphPad Software Inc.).
Tumour Growth Inhibition, ΔTGI %=((mean(C)−mean (CO))−(mean(T)−mean(TO)))/(mean(C)−mean(CO))×100% where T is the mean tumour volume on the measurement day and TO is the mean tumour volume of the treated group on Study Day 0. C is the mean tumour volume of the control Group 1 mice on the measurement day and CO is the mean tumour volume on Study Day 0.
Data set [6] can be described thus: Body weight in BT474 xenograft study. The note with it: trastuzumab or ADC Example 1 2.5 or 5 mg/kg; Example 12 2 mg/kg (Group 6). In kind it is in vivo, NOD/SCID mice. As to the method:
During the study, body weights were measured three times weekly for all animals. Animals were given Diet Gel for the entire duration on the study.

`Cc1c(CCOc2cc(Cl)ccc2-c2ccc3ncc(CCN)n3c2)c(C(=O)N(C)C)nn1C` [Comparator Compound 1, 4-(2-{2-[3-(2-aminoethyl)imidazo[1,2-a]pyridin-6-yl]-5-chlorophenoxy}ethyl)-N,N,1,5-tetramethyl-1H-pyrazole-3-carboxamide, reference compound]: the IC50 in data set [1] was 613 nM; in data set [2], 96 nM; in data set [3], 82 nM; in data set [4] it was above 1000 nM. The “mHeps t^1/2” value in the data set with mouse hepatocytes amounted to 127.68 min.
Regarding `CNCc1cnc2ccc(-c3ccc(F)c(F)c3OCCc3c(C(O)C(C)(C)C)nn(C)c3C)cn12` (single isomer, unassigned) [Example 12, 1-(4-(2-(2,3-difluoro-6-(3-((methylamino)methyl)imidazo[1,2-a]pyridin-6-yl)phenoxy)ethyl)-1,5-dimethyl-1H-pyrazol-3-yl)-2,2-dimethylpropan-1-ol], in the data set on DOHH-2 tumor cells, the “tumour volume compared to vehicle” value is “significant reduction in tumour volume or reduced growth in tumour volume”. Besides, the tumour size entry in data set [5] is “reduced tumour size”. In addition, in data set [6], the “body weights compared to vehicle control” value is on record as “decreased significantly”.

The term IC50 denotes the point on the concentration scale where inhibition reaches its midpoint. Read a high IC50 as lower potency.

For the origin of these results see patent publication US12599676B2, “Cytotoxic imidazo[1,2-A]pyridine compounds and their use in therapy” (MyricX Pharma Limited, priority 2022, dated 2026).
